Results as given in patent US7385026B1, “Modified ghrelin polypeptides” (priority 1999, dated 2008).
Square brackets hold non-standard residues; d marks the D form. Peptide text beside a SMILES is read from it. * marks the point of attachment. Octanoyl = CCCCCCCC(=O)*; Ava = NCCCCC(=O)O

Target: T1, rat GHS-receptor (GHR-R) (Rattus norvegicus, UniProt O08725)
T1 construct: A full-length cDNA for rat GHR-R was obtained by RT-PCR; expressed in transfected cells
Test: Ca-releasing activity (increase in intracellular calcium) in CHO-GHSR62 cells, FLIPR
Type: cell-based
Conditions: not given
Description: To assay an increase in the intracellular calcium ion concentration (Ca-releasing activity) occurring upon binding of a GH secretagogue (GHS) to GHS-receptor (GHR-R), a cell strain expressing rat GHR-R was created in the following manner. A full-length cDNA for rat GHR-R was obtained by RT-PCR (reverse transcriptase-polymerase chain reaction) where a cDNA derived from rat brain was used as template. From the nucleotide sequence of known rat GHR-R [K. K. Mckee, et al, Molecular Endocrinology 11, 415-423 (1997)], sense and antisense primers consisting of the following nucleotide sequences were synthesized.
The amplified cDNA was ligated to vector pcDNAIII (Invitrogen) to construct expression vector GHSR-pcDNAIII. CHO cells were transformed via the expression vector, and the transformed cells stably expressing GHR-R were selected in a medium containing 1 μg/ml G418. […] A change in the intracellular calcium ion concentration (Ca-releasing activity) was measured by an FLIPR system (Molecular Device). Before this measurement, 4×10^4 CHO-GHSR62 cells were put to a 96-well microplate with black wall (Corning Co., Ltd) and cultured for 12 to 15 hours. Then, the cells were incubated with 4 μM fluorescent Fluo4 (Molecular Probe Co., Ltd) for 1 hour and washed four times with Hank's BSS (Hank's Balanced Salt Solution) containing 20 mM Hepes ([N-2-hydroxyethyl]-piperazine-N-[2-ethanesulfonic acid]) and 2.5 mM probenecid, and the Ca-releasing activity was assayed by adding a sample and measuring a change in the fluorescence.
Peptide fragments obtained by partially digested the rat- and human-derived ghrelins by various proteases, or chemically synthesized peptides, were examined for their Ca releasing activity in order to determine a core amino acid sequence and the optimum chain length of a modifying fatty acid necessary for Ca-releasing activity.
The Ca-increasing activities of the ghrelin derivative peptide-type compounds synthesized in Example 10 and the natural ghrelin peptide were measured in the same manner as in Example 1.
In this examination, the intracellular Ca-releasing activity in CHO cells expressing rat GSH receptor was used as the indicator.

T1 sequence (O08725 whole entry): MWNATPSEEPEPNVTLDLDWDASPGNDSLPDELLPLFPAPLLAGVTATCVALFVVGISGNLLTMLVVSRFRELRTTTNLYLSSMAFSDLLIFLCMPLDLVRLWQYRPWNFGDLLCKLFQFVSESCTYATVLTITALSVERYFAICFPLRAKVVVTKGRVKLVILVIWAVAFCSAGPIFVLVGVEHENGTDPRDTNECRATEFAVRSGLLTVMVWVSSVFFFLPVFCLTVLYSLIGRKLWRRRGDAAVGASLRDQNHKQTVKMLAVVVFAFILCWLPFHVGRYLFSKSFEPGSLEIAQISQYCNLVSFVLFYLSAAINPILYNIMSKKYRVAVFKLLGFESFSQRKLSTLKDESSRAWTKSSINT

SMILES | Ca-releasing activity of ghrelin (1-9) after amidation relative to before amidation | Ca-releasing activity relative to ghrelin(1-4) amide
CCCCCCCC(=O)OC[C@H](NC(=O)[C@H](CO)NC(=O)CN)C(=O)N[C@@H](Cc1ccccc1)C(=O)N[C@@H](CC(C)C)C(=O)N[C@@H](CO)C(=O)N1CCC[C@H]1C(=O)N[C@@H](CCC(=O)O)C(=O)N[C@@H](Cc1c[nH]cn1)C(N)=O [Compound 3, Ghrelin (1-9)-amide] (H-GSS(Octanoyl)FLSPEH-NH2) | about 7 times | –
CCCCCCCC(=O)OC[C@H](NC(=O)[C@H](CO)NC(=O)CN)C(=O)N[C@@H](Cc1ccccc1)C(=O)N[C@@H](CC(C)C)C(N)=O [Compound 32, Ghrelin (1-5)-amide] (H-GSS(Octanoyl)FL-NH2) | – | about 26 times

Same assay, conditions: CHO-GHSR62 cells (CHO cells expressing rat GHS receptor), FLIPR; read-out: Ca-releasing activity EC50

SMILES | EC50
CCCCCCCC(=O)OC[C@H](NC(=O)[C@H](CO)NC(=O)CN)C(=O)N[C@@H](Cc1ccccc1)C(=O)N[C@@H](CC(C)C)C(=O)N[C@@H](CO)C(=O)N1CCC[C@H]1C(=O)N[C@@H](CCC(=O)O)C(=O)N[C@@H](Cc1c[nH]cn1)C(N)=O [Compound 3, Ghrelin (1-9)-amide] (H-GSS(Octanoyl)FLSPEH-NH2) | 5.4 nM
CCCCCCCCCCCC(=O)OC[C@H](NC(=O)[C@H](CO)NC(=O)CN)C(=O)N[C@@H](Cc1ccccc1)C(=O)N[C@@H](CC(C)C)C(=O)N[C@@H](CO)C(=O)N1CCC[C@H]1C(=O)N[C@@H](CCC(=O)O)C(=O)N[C@@H](Cc1c[nH]cn1)C(=O)N[C@@H](CCC(N)=O)C(=O)N[C@@H](CCCCN)C(=O)N[C@@H](C)C(=O)N[C@@H](CCC(N)=O)C(=O)N[C@@H](CCC(N)=O)C(=O)N[C@@H](CCCNC(=N)N)C(=O)N[C@@H](CCCCN)C(=O)N[C@@H](CCC(=O)O)C(=O)N[C@@H](CO)C(=O)N[C@@H](CCCCN)C(=O)N[C@@H](CCCCN)C(=O)N1CCC[C@H]1C(=O)N1CCC[C@H]1C(=O)N[C@@H](C)C(=O)N[C@@H](CCCCN)C(=O)N[C@@H](CC(C)C)C(=O)N[C@@H](CCC(N)=O)C(=O)N1CCC[C@H]1C(=O)N[C@@H](CCCNC(=N)N)C(=O)O [Compound 13, [Ser^3(Lauroyl)]-rGhrelin] | 2.4 nM
CCCCCCCC(=O)OC[C@H](NC(=O)[C@H](CO)NC(=O)CN)C(=O)N[C@@H](Cc1ccccc1)C(=O)N[C@@H](CC(C)C)C(=O)N[C@@H](CO)C(=O)N1CCC[C@H]1C(=O)N[C@@H](CCC(=O)O)C(=O)N[C@@H](Cc1c[nH]cn1)C(=O)N[C@@H](CCC(N)=O)C(=O)N[C@@H](CCCCN)C(=O)N[C@@H](C)C(=O)N[C@@H](CCC(N)=O)C(=O)N[C@@H](CCC(N)=O)C(=O)N[C@@H](CCCNC(=N)N)C(=O)O [Compound 21, rGhrelin (1-15)] | 8.6 nM
CCCCCCCC(=O)OC[C@H](NC(=O)[C@H](CO)NC(=O)CN)C(=O)N[C@@H](Cc1ccccc1)C(=O)N[C@@H](CC(C)C)C(N)=O [Compound 32, Ghrelin (1-5)-amide] (H-GSS(Octanoyl)FL-NH2) | 6.2 nM
CCCCCCCOC(=O)C[C@H](NC(=O)[C@H](CO)NC(=O)CN)C(=O)N[C@@H](Cc1ccccc1)C(=O)N[C@@H](CC(C)C)C(=O)N[C@@H](CO)C(=O)N1CCC[C@H]1C(=O)N[C@@H](CCC(=O)O)C(=O)N[C@@H](Cc1c[nH]cn1)C(=O)N[C@@H](CCC(N)=O)C(=O)N[C@@H](CCCNC(=N)N)C(=O)N[C@H](C(=O)N[C@@H](CCC(N)=O)C(=O)N[C@@H](CCC(N)=O)C(=O)N[C@@H](CCCNC(=N)N)C(=O)N[C@@H](CCCCN)C(=O)N[C@@H](CCC(=O)O)C(=O)N[C@@H](CO)C(=O)N[C@@H](CCCCN)C(=O)N[C@@H](CCCCN)C(=O)N1CCC[C@H]1C(=O)N1CCC[C@H]1C(=O)N[C@@H](C)C(=O)N[C@@H](CCCCN)C(=O)N[C@@H](CC(C)C)C(=O)N[C@@H](CCC(N)=O)C(=O)N1CCC[C@H]1C(=O)N[C@@H](CCCNC(=N)N)C(=O)O)C(C)C [Compound 54, [Asp^3(O-Heptyl)]-hGhrelin] | 5.1 nM
CCCCCCCC(=O)OC[C@H](NC(=O)CCCCN)C(=O)N[C@@H](Cc1ccccc1)C(=O)N[C@@H](CC(C)C)C(=O)N[C@@H](CO)C(=O)N1CCC[C@H]1C(N)=O [Compound 40, [N-Aminopentanoyl]-Ghrelin (3-7)-amide] (H-[Ava]S(Octanoyl)FLSP-NH2) | 3.4 nM
CCCCCCCNC(=O)C[C@H](NC(=O)[C@H](CO)NC(=O)CN)C(=O)N[C@@H](Cc1ccccc1)C(=O)N[C@@H](CC(C)C)C(=O)N[C@@H](CO)C(=O)N1CCC[C@H]1C(=O)N[C@@H](CCC(=O)O)C(=O)N[C@@H](Cc1c[nH]cn1)C(=O)N[C@@H](CCC(N)=O)C(=O)N[C@@H](CCCNC(=N)N)C(=O)N[C@H](C(=O)N[C@@H](CCC(N)=O)C(=O)N[C@@H](CCC(N)=O)C(=O)N[C@@H](CCCNC(=N)N)C(=O)N[C@@H](CCCCN)C(=O)N[C@@H](CCC(=O)O)C(=O)N[C@@H](CO)C(=O)N[C@@H](CCCCN)C(=O)N[C@@H](CCCCN)C(=O)N1CCC[C@H]1C(=O)N1CCC[C@H]1C(=O)N[C@@H](C)C(=O)N[C@@H](CCCCN)C(=O)N[C@@H](CC(C)C)C(=O)N[C@@H](CCC(N)=O)C(=O)N1CCC[C@H]1C(=O)N[C@@H](CCCNC(=N)N)C(=O)O)C(C)C [Compound 55, [Asp^3(NH-Heptyl)]-hGhrelin] | 11 nM
CCCC(=O)OC[C@H](NC(=O)[C@H](CO)NC(=O)CN)C(=O)N[C@@H](Cc1ccccc1)C(=O)N[C@@H](CC(C)C)C(=O)N[C@@H](CO)C(=O)N1CCC[C@H]1C(=O)N[C@@H](CCC(=O)O)C(=O)N[C@@H](Cc1c[nH]cn1)C(=O)N[C@@H](CCC(N)=O)C(=O)N[C@@H](CCCCN)C(=O)N[C@@H](C)C(=O)N[C@@H](CCC(N)=O)C(=O)N[C@@H](CCC(N)=O)C(=O)N[C@@H](CCCNC(=N)N)C(=O)N[C@@H](CCCCN)C(=O)N[C@@H](CCC(=O)O)C(=O)N[C@@H](CO)C(=O)N[C@@H](CCCCN)C(=O)N[C@@H](CCCCN)C(=O)N1CCC[C@H]1C(=O)N1CCC[C@H]1C(=O)N[C@@H](C)C(=O)N[C@@H](CCCCN)C(=O)N[C@@H](CC(C)C)C(=O)N[C@@H](CCC(N)=O)C(=O)N1CCC[C@H]1C(=O)N[C@@H](CCCNC(=N)N)C(=O)O [Compound 10, [Ser^3(Butyryl)]-rGhrelin] | 280 nM
CCCCCCCC(=O)OC[C@H](NC(=O)[C@H](CO)NC(=O)CN)C(=O)N[C@@H](Cc1ccccc1)C(=O)N[C@@H](CC(C)C)C(=O)N[C@@H](CO)C(=O)N1CCC[C@H]1C(=O)N[C@@H](CCCCN)C(N)=O [Compound 35, [Lys^8]-Ghrelin (1-8)-amide] (H-GSS(Octanoyl)FLSPK-NH2) | 1.1 nM
CCCCCCCC(=O)OC[C@H](NC(=O)CNC(=O)CN)C(=O)N[C@@H](Cc1ccccc1)C(=O)N[C@@H](CC(C)C)C(=O)N[C@@H](CO)C(=O)N1CCC[C@H]1C(N)=O [Compound 47, [Gly^2]-Ghrelin (1-7)-amide] (H-GGS(Octanoyl)FLSP-NH2) | 78 nM
CCCCCCCC(=O)OC[C@H](NC(=O)[C@H](CO)NC(=O)CN)C(=O)N[C@@H](Cc1ccccc1)C(=O)N[C@@H](CC(C)C)C(=O)N[C@@H](CO)C(=O)N1CCC[C@H]1C(N)=O [Compound 29, Ghrelin (1-7)-amide] | 2.6 nM
CCCCCCCC(=O)NCC(=O)N[C@@H](CO)C(=O)N[C@@H](CO)C(=O)N[C@@H](Cc1ccccc1)C(=O)N[C@@H](CC(C)C)C(=O)N[C@@H](CO)C(=O)N1CCC[C@H]1C(=O)N[C@@H](CCC(=O)O)C(=O)N[C@@H](Cc1c[nH]cn1)C(N)=O [Compound 6, [N-Octanoyl, Ser^3]-Ghrelin (1-9)-amide] (Octanoyl-GSSFLSPEH-NH2) | > 10000 nM

Same assay, conditions: Ca-releasing activity EC50, CHO-GHSR62 cells (CHO cells expressing rat GHS receptor), FLIPR

SMILES | EC50
CC(C)C[C@H](NC(=O)[C@H](CCCCN)NC(=O)[C@H](C)NC(=O)[C@@H]1CCCN1C(=O)[C@@H]1CCCN1C(=O)[C@H](CCCCN)NC(=O)[C@H](CCCCN)NC(=O)[C@H](CO)NC(=O)[C@H](CCC(=O)O)NC(=O)[C@H](CCCCN)NC(=O)[C@H](CCCNC(=N)N)NC(=O)[C@H](CCC(N)=O)NC(=O)[C@H](CCC(N)=O)NC(=O)[C@@H](NC(=O)[C@H](CCCNC(=N)N)NC(=O)[C@H](CCC(N)=O)NC(=O)[C@H](Cc1c[nH]cn1)NC(=O)[C@H](CCC(=O)O)NC(=O)[C@@H]1CCCN1C(=O)[C@H](CO)NC(=O)[C@H](CC(C)C)NC(=O)[C@H](Cc1ccccc1)NC(=O)[C@H](CSC(c1ccccc1)(c1ccccc1)c1ccccc1)NC(=O)[C@H](CO)NC(=O)CN)C(C)C)C(=O)N[C@@H](CCC(N)=O)C(=O)N1CCC[C@H]1C(=O)N[C@@H](CCCNC(=N)N)C(=O)O [Compound 68, [Cys^3(Trityl)]-hGhrelin] | 20 nM

Same assay, conditions: Table 3, Example 9: protease fragments or synthetic peptides; CHO-GHSR62 cells; read-out: Ca-releasing activity (EC50)

SMILES | EC50
CCCCCCCC(=O)OC[C@H](NC(=O)[C@H](CO)NC(=O)CN)C(=O)N[C@@H](Cc1ccccc1)C(=O)N[C@@H](CC(C)C)C(=O)N[C@@H](CO)C(=O)N1CCC[C@H]1C(=O)N[C@@H](CCC(=O)O)C(=O)N[C@@H](Cc1c[nH]cn1)C(=O)N[C@@H](CCC(N)=O)C(=O)N[C@@H](CCCNC(=N)N)C(=O)O [Compound 23, hGhrelin (1-11)] | 15 nM
CCCCCCCC(=O)OC[C@H](NC(=O)[C@H](CO)NC(=O)CN)C(=O)N[C@@H](Cc1ccccc1)C(=O)N[C@@H](CC(C)C)C(=O)N[C@@H](CO)C(=O)N1CCC[C@H]1C(=O)N[C@@H](CCC(=O)O)C(=O)O [Compound 27, Ghrelin (1-8)] | 100 nM

Same assay, conditions: octanoyl moved from 3rd to 2nd serine

SMILES | Ca-releasing activity relative to the 3rd-serine octanoyl parent
CCCCCCCC(=O)OC[C@H](NC(=O)CN)C(=O)N[C@@H](CO)C(=O)N[C@@H](Cc1ccccc1)C(=O)N[C@@H](CC(C)C)C(=O)N[C@@H](CO)C(=O)N1CCC[C@H]1C(=O)N[C@@H](CCC(=O)O)C(=O)N[C@@H](Cc1c[nH]cn1)C(N)=O [Compound 4, [Ser^2(Octanoyl), Ser^3]-Ghrelin (1-9)-amide] (H-GS(Octanoyl)SFLSPEH-NH2) | about 1/200
